This assay concerns the target T1, CFTR in F508del/MF-HBE cells (Homo sapiens, UniProt P13569, DEL508-508).
T1 construct: human bronchial epithelial (HBE) cells derived from CF subjects heterozygous for F508del and a minimal function CFTR mutation; endogenous in cells; host or cells: primary human bronchial epithelial cells from CF subjects (F508del/MF-HBE)
Put plainly: Ussing chamber assay of CFTR-mediated short-circuit currents (identification of potentiator compounds). It counts as cell-based. The note with it: potentiator incubated 18-24 hours at 37° C. in combination with 10 μM corrector, in the presence of 20% human serum, CFTR-mediated ISC. The essentials:
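Short-circuit current was measured in Ussing chambers at 37° C, Vhold 0 mV, 30 μM apical amiloride. CFTR current was defined as the forskolin (20 μM) response relative to the current remaining after BPO/GlyH-101/inhibitor 172 (20 μM each). Before recording, cells had 18-24 h exposure to test potentiators with 10 μM corrector compound in 20% human serum.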

pEC50: −log10 of the molar value.

T1 sequence (P13569 with tags, fused parts or gaps DEL508-508): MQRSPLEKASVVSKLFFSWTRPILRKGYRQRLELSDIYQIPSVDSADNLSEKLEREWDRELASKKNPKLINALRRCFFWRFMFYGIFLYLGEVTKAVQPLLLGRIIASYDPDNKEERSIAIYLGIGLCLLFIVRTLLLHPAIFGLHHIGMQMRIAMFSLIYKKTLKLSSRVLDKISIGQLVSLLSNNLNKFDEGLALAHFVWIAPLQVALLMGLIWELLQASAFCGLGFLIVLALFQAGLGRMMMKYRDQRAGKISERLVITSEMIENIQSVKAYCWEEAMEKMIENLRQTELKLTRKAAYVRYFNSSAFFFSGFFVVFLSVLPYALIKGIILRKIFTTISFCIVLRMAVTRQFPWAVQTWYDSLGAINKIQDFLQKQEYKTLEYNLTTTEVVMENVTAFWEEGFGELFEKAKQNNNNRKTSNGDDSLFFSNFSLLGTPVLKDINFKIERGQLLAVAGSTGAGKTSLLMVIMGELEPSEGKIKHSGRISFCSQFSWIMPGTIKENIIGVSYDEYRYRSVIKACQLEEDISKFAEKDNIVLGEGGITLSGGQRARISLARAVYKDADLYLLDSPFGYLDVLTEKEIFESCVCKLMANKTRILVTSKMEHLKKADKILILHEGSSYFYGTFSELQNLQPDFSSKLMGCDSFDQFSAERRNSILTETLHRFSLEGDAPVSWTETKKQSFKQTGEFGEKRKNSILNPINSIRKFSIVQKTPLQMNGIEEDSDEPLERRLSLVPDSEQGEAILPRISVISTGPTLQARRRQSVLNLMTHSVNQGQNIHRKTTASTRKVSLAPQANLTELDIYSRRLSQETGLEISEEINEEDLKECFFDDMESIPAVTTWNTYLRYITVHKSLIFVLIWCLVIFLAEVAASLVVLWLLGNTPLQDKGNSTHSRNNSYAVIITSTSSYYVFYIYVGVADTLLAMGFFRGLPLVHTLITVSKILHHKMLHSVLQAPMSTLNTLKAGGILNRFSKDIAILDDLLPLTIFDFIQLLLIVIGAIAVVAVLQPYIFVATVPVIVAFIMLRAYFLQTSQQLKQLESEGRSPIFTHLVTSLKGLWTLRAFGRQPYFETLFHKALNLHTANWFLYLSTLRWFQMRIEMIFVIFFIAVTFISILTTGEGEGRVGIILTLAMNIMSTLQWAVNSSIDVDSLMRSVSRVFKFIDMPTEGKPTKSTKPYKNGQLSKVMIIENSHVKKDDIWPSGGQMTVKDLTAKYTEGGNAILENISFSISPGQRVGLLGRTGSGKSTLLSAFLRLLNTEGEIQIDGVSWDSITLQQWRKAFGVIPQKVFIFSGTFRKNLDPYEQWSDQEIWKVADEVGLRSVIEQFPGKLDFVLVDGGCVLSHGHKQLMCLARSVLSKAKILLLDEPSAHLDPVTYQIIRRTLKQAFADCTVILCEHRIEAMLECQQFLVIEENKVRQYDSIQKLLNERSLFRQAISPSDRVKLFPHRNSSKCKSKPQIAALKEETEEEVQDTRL

Regarding `Cc1cnc(CN2CCCCC[C@](O)(C(F)(F)F)C3=NN=C(O3)c3nc(c(C(F)(F)F)cc3N)C2=O)cn1` [Compound 167, (6R)-- 17-amino-6-hydroxy-12-[(5-methylpyrazin-2-yl)methyl]-6,15-bis (trifluoromethyl)-19-oxa-3,4,12,18-tetrazatricyclo [12.3.1.12,5] nonadeca-1(18),2,4,14,1 6-pentaen-13-one], the pEC50 (commonly the EC50 on a negative log10 scale, so that one unit is a factor of ten) is less than 6.00.

Take `CCCc1ccccc1CN1CCCCC[C@](O)(C(F)(F)F)C2=NN=C(O2)c2nc(c(C(F)(F)F)cc2N)C1=O` [Compound 168, (6R)-17-amino-6-hydroxy-12-[(2-propylphenyl)methyl]-6,15-bis (trifluoromethyl)-19-oxa-3,4,12,18-tetrazatricyclo [12.3.1.12,5] nonadeca-1(18),2,4,14,1 6-pentaen-13-one]: the negative-log EC50 (pEC50) is greater than 6.30.

`Cc1cnc(CN2CCCCC[C@](O)(C(F)(F)F)C3=NN=C(O3)c3nc(c(C(F)(F)F)cc3N)C2=O)nc1` [Compound 169, (6R)-17-amino-6-hydroxy-12-[(5-methylpyrimidin-2-yl)methyl]-6,15-bis (trifluoromethyl)-19-oxa-3,4,12,18-tetrazatricyclo [12.3.1.12,5] nonadeca-1(18),2,4,14,1 6-pentaen-13-one]: the negative-log EC50 (pEC50) is less than 6.00.

For `CC(C)(C)Cc1ccc(CN2CCCCC[C@](O)(C(F)(F)F)C3=NN=C(O3)c3nc(c(C(F)(F)F)cc3N)C2=O)cc1` [Compound 170, (6R)-17-amino-12-[[4-(2,2-dimethylpropyl)phenyl]methyl]-6-hydroxy-6,15-bis (trifluoromethyl)-19-oxa-3,4,12,18-tetrazatricyclo [12.3.1.12,5] nonadeca-1(18),2,4,14,1 6-pentaen-13-one], the pEC50 is greater than 6.30.

`CC(C)(C)c1ncc(CN2CCCCC[C@](O)(C(F)(F)F)C3=NN=C(O3)c3nc(c(C(F)(F)F)cc3N)C2=O)cn1` [Compound 171, (6R)-17-amino-12-[(2-tert-butylpyrimidin-5-yl)methyl]-6-hydroxy-6,15-bis (trifluoromethyl)-19-oxa-3,4,12,18-tetrazatricyclo [12.3.1.12,5] nonadeca-1(18),2,4,14,1 6-pentaen-13-one]: the negative logarithm of the EC50 (pEC50) was greater than 6.30.

Turning to `CC(C)Oc1cccc(CN2CCCCC[C@](O)(C(F)(F)F)C3=NN=C(O3)c3nc(c(C(F)(F)F)cc3N)C2=O)c1` [Compound 172, (6R)-17-amino-6-hydroxy-12-[(3-isopropoxyphenyl)methyl]-6,15-bis (trifluoromethyl)-19-oxa-3,4,12,18-tetrazatricyclo [12.3.1.12,5] nonadeca-1(18),2,4,14,1 6-pentaen-13-one], the negative logarithm of the EC50 (pEC50) was greater than 6.30.

On to `Nc1cc(C(F)(F)F)c2nc1-c1nnc(o1)[C@@](O)(C(F)(F)F)CCCCCN(Cc1ccc(-c3ccccc3)cc1)C2=O` [Compound 173, (6R)-17-amino-6-hydroxy-12-[(4-phenylphenyl)methyl]-6,15-bis (trifluoromethyl)-19-oxa-3,4,12,18-tetrazatricyclo [12.3.1.12,5] nonadeca-1(18),2,4,14,1 6-pentaen-13-one], for which the negative logarithm of the EC50 (pEC50) was greater than 6.30.

Regarding `CC1(C)CCCC[C@](O)(C(F)(F)F)C2=NN=C(O2)c2nc(c(C(F)(F)F)cc2N)C(=O)N1` [Compound 174, (6R)-17-amino-6-hydroxy-11,11-dimethyl-6,15-bis (trifluoromethyl)-19-oxa-3,4,12,18-tetrazatricyclo [12.3.1.12,5] nonadeca-1(18),2,4,14,1 6-pentaen-13-one], the negative logarithm of the EC50 (pEC50) is greater than 6.30.

For `COc1ccc(CN2CCCCC[C@](O)(C(F)(F)F)C3=NN=C(O3)c3nc(c(C(F)(F)F)cc3N)C2=O)c(F)c1F` [Compound 175, (6R)-17-amino-12-[(2,3-difluoro-4-methoxy-phenyl)methyl]-6-hydroxy-6,15-bis (trifluoromethyl)-19-oxa-3,4,12,18-tetrazatricyclo [12.3.1.12,5] nonadeca-1(18),2,4,14,1 6-pentaen-13-one], the negative logarithm of the EC50 (pEC50) is greater than 6.30.

For `COc1cc(F)cc(CN2CCCCC[C@](O)(C(F)(F)F)C3=NN=C(O3)c3nc(c(C(F)(F)F)cc3N)C2=O)c1` [Compound 176, (6R)-17-amino-12-[(3-fluoro-5-methoxy-phenyl)methyl]-6-hydroxy-6,5-bis (trifluoromethyl)-19-oxa-3,4,12,18-tetrazatricyclo [12.3.1.12,5] nonadeca-1(18),2,4,14,1 6-pentaen-13-one], the negative logarithm of the EC50 (pEC50) was greater than 6.30.

`COc1ccc(CN2CCCCC[C@](O)(C(F)(F)F)C3=NN=C(O3)c3nc(c(C(F)(F)F)cc3N)C2=O)c(F)c1` [Compound 177, (6R)-17-amino-12-[(2-fluoro-4-methoxy-phenyl)methyl]-6-hydroxy-6,15-bis (trifluorom ethyl)-19-oxa-3,4,12,18-tetrazatricyclo [12.3.1.12,5] nonadeca-1(18),2,4,14,1 6-pentaen-13-one]: the pEC50 is greater than 6.30.

With `Nc1cc(C(F)(F)F)c2nc1-c1nnc(o1)[C@@](O)(C(F)(F)F)CCCCCN(Cc1cc(Cl)cc(OC(F)(F)F)c1)C2=O` [Compound 178, (6R)-17-amino-12-[[3-chloro-5-(trifluoromethoxy)phenyl]methyl]-6-hydroxy-6,15-bis (trifluoromethyl)-19-oxa-3,4,12,18-tetrazatricyclo [12.3.1.12,5] nonadeca-1(18),2,4,14,1 6-pentaen-13-one], the pEC50 is greater than 6.30.

Take `Cc1cc(CN2CCCCC[C@](O)(C(F)(F)F)C3=NN=C(O3)c3nc(c(C(F)(F)F)cc3N)C2=O)cc(OC(F)(F)F)c1` [Compound 179, (6R)-17-amino-6-hydroxy-12-[[3-methyl-5-(trifluoromethoxy)phenyl]methyl]-6,15-bis (trifluoromethyl)-19-oxa-3,4,12,18-tetrazatricyclo [12.3.1.12,5] nonadeca-1(18),2,4,14,1 6-pentaen-13-one]: the negative logarithm of the EC50 (pEC50) was greater than 6.30.

Regarding `Cc1c(CN2CCCCC[C@](O)(C(F)(F)F)C3=NN=C(O3)c3nc(c(C(F)(F)F)cc3N)C2=O)cccc1OC(F)(F)F` [Compound 180, (6R)-17-amino-6-hydroxy-12-[[2-methyl-3-(trifluoromethoxy)phenyl]methyl]-6,15-bis(trifluoromethyl)-19-oxa-3,4,12,18-tetrazatricyclo [12.3.1.12,5] nonadeca-1(18),2,4,14,1 6-pentaen-13-one], the negative logarithm of the EC50 (pEC50) is greater than 6.30.

`Nc1cc(C(F)(F)F)c2nc1-c1nnc(o1)[C@@](O)(C(F)(F)F)CCCCCN(Cc1ccc(OCC(F)(F)F)cc1)C2=O` [Compound 181, (6R)-17-amino-6-hydroxy-12-[[4-(2,2,2-trifluoroethoxy)phenyl]methyl]-6,15-bis (trifluoromethyl)-19-oxa-3,4,12,18-tetrazatricyclo [12.3.1.12,5] nonadeca-1(18),2,4,14,1 6-pentaen-13-one]: the pEC50 is greater than 6.30.

Consider `Nc1cc(C(F)(F)F)c2nc1-c1nnc(o1)[C@@](O)(C(F)(F)F)CCCCCN(Cc1cccc(C(F)(F)F)c1)C2=O` [Compound 182, (6R)-17-amino-6-hydroxy-6,15-bis (trifluoromethyl)-12-[[3-(trifluoromethyl)phenyl]methyl]-19-oxa-3,4,12,18-tetrazatricyclo [12.3.1.12,5] nonadeca-1(18),2,4,14,1 6-pentaen-13-one], for which the pEC50 was greater than 6.30.
